What follows are molecules tested on Rap1 (assay: Prenylation of Rap1 in Neuro2A cells, western blotting). Conditions: 100 nM; with GGTI-298; percentage of control (GGTI only).
Format: cell-based, mouse
Experimental: Mouse neuroblastoma Neuro2A cells were cultured in DMEM supplemented with 10% FBS for 24 hrs. The cells were treated with 102GGA derivative compounds for 24 hrs first before GGTase inhibitor GGTI-298 was added to the culture medium for additional 24 hr incubation. […] Both un-prenylated and total Rap1 protein bands were quantified using Image J and normalized to their respective loading control GAPDH. The results for control and each compound treatment were calculated as the ratio of normalized un-prenylated Rap1 to total Rap1, and averaged from two biological repeats of one experiment. The final results were presented as a percentage of the control treatments (GGTI only) from the same batch experiment. The data shown in the chart were averaged from two repeats of one experiment and presented as the ratio of normalized un-prenylated Rap1 to total Rapt Compound ID numbers in table refer to structures in Table 1 and Table 2.

SMILES	unprenylated/total RAP1 (%)
CC(C)=CCC/C(C)=C/CC/C(C)=C/CCC(C)OC(=O)NCC1CCCCC1 (stereo not drawn) [Compound 20h, Cyclohexylmethyl 5E, 9E-farnesyl prop-2-yl carbamate]	58%
CCCCCCNC(=O)OC/C=C(\C)CC/C=C(\C)CCC=C(C)C [Compound 8i, Hexyl 2E, 6E-farnesyl carbamate]	59%
CC/C(=C\CCC(=O)C12CC3CC(CC(C3)C1)C2)CC/C=C(\C)CC/C=C(\C)CCC=C(C)C [Compound 127]	77%
CCOC(=O)CCNC(=O)OC/C=C(\C)CC/C=C(\C)CC/C=C(\C)CCC=C(C)C [Compound 7m, Ethoxycarbonyl ethyl 2E, 6E, 10E-geranylgeranyl carbamate]	54%
CCC(=O)CC/C=C(\CC)CC/C=C(\C)CC/C=C(\C)CCC=C(C)C [Compound 128]	67%
CC(C)=CCC/C(C)=C/CC/C(C)=C/CC/C(C)=C/COC(=O)C1CCCCC1 [Compound 2f, 2E, 6E, 10E-Geranylgeranyl cyclohexanoate]	65%
CC(C)=CCC/C(C)=C/CC/C(C)=C/CC/C(C)=C/COC(=S)NC1CC2CCC1C2 (stereo not drawn) [Compound 10j, Exo-Norbornyl 2E,6E,10E-geranylgeranyl thiocarbamate]	91%
CC(=O)CC/C=C(\C)CC/C=C(\C)CC/C=C(\C)CC/C=C(\C)CCC=C(C)C [Compound 132]	103%
CC(C)=CCC/C(C)=C/CC/C(C)=C/CC/C(C)=C/C1=N[C@@H](Cc2ccccc2)CO1 [Compound 27g, (S)-4-benzyl-2-((1E,5E,9E)-2,6,10,14-tetramethylpentadeca-1,5,9,13-tetraen-1-yl)-4,5-dihydrooxazole]	129%
CC(C)=CCC/C(C)=C/CC/C(C)=C/CC/C(C)=C/COC(=S)NCCN1CCOCC1 [Compound 10m, Morpholinyl-2′-ethyl 2E,6E,10E-geranylgeranyl thiocarbamate]	100%
CC(C)=CCC/C(C)=C/CC/C(C)=C/CC/C(C)=C/CC1CCCCC1=O (stereo not drawn) [Compound 84]	72%
CCOC(=O)/C=C(\CC)CC/C=C(\C)CC/C=C(\C)CCC=C(C)C [Compound 131]	61%
CC(=O)CC/C=C(\C)CC/C=C(\C)CCC=C(C)C [Compound 52]	71%
CCCCCNC(=O)OC(C)CC/C=C(\C)CC/C=C(\C)CCC=C(C)C (stereo not drawn) [Compound 20d, n-Pentyl 5E, 9E-farnesyl prop-2-yl carbamate]	67%

These molecules were tested on HSP70 (assay: HSP70 levels in Neuro 2a cells, ELISA). Conditions: 100 nM, 48 hrs compound then 24 hrs GGTI-298.
Format: cell-based, mouse
Experimental: Mouse neuroblastoma 2a cells were cultured in DMEM with 10% FBS for 24 hrs. […] After 24 hrs cells were harvested and lysates were prepared and analyzed by ELISA for HSP70. Compound ID numbers in table refer to structures in Table 1 and Table 2.

SMILES	HSP70 level, ELISA signal (absence of compounds normalized as 1.00)
CCOC(=O)CCNC(=O)OC/C=C(\C)CC/C=C(\C)CC/C=C(\C)CCC=C(C)C [Compound 7m, Ethoxycarbonyl ethyl 2E, 6E, 10E-geranylgeranyl carbamate]	0.89
CC(C)=CCC/C(C)=C/CC/C(C)=C/CC/C(C)=C/COC(=S)NC1CC2CCC1C2 (stereo not drawn) [Compound 10j, Exo-Norbornyl 2E,6E,10E-geranylgeranyl thiocarbamate]	1.06
CC(C)=CCC/C(C)=C/CC/C(C)=C/CC/C(C)=C/CC1CCCCCC1=O (stereo not drawn) [Compound 147]	0.94
COCCC(=O)C(C/C=C(\C)CC/C=C(\C)CC/C=C(\C)CCC=C(C)C)C(=O)OC (stereo not drawn) [Compound 81]	1.12
CCOC(=O)C(C/C=C(\C)CC/C=C(\C)CC/C=C(\C)CCC=C(C)C)C(=O)c1ccoc1 (stereo not drawn) [Compound 68]	1.11
CC(C)=CCC/C(C)=C/CC/C(C)=C/CC/C(C)=C/CN(C)C1CCCCC1 [Compound 17a, N-Cyclohexyl N-Methyl-2E,6E,10E-Geranylgeranyl amine]	1.09
CCOC(=O)C1(C/C=C(\C)CC/C=C(\C)CC/C=C(\C)CCC=C(C)C)CCCC1=O (stereo not drawn) [Compound 79]	0.98
CC(=O)CC/C=C(\C)CCC=C1CCCCC1 [Compound 92]	0.92
CCOC(=O)C(C/C=C(\C)CC/C=C(\C)CC/C=C(\C)CCC=C(C)C)C(=O)C12CC3CC(CC(C3)C1)C2 (stereo not drawn) [Compound 71]	1.03
CC(C)=CCC/C(C)=C/CC/C(C)=C/CC/C(C)=C/COC(=O)Nc1ccc(C(=O)c2ccccc2)cc1 [Compound 7u, p-Benzoyl phenyl 2E, 6E, 10E-geranylgeranyl carbamate]	1.03
CC(C)=CCC/C(C)=C/CC/C(C)=C/CC/C(C)=C/C1=N[C@H](C)CO1 [Compound 27d, (R)-4-methyl-2-((1E,5E,9E)-2,6,10,14-tetramethylpentadeca-1,5,9,13-tetraen-1-yl)-4,5-dihydrooxazole]	1.04
CCC(=CCCC(C)=O)CC/C=C(\C)CC/C=C(\C)CCC=C(C)C [Compound 117]	1.08
CC(C)=CCC/C(C)=C/CC/C(C)=C/CCC(=O)C(C)(C)C [Compound 100]	1.14
CC(C)=CCC/C(C)=C/CC/C(C)=C/CC/C(C)=C/CCC(=O)c1ccoc1 [Compound 69]	0.90
CC(C)=CCC/C(C)=C/CC/C(C)=C/CC/C(C)=C/CCC(C)OC(=O)NC1CCCCCC1 (racemic) [Compound 23e, Cycloheptyl 5E, 9E, 13E-geranylgeranyl-rac-prop-2-yl carbamate]	0.97
CCOC(=O)C1(C/C=C(\C)CC/C=C(\C)CC/C=C(\C)CCC=C(C)C)CCCCCC1=O (stereo not drawn) [Compound 76]	0.75

Same assay, conditions: 10uM, 48 hrs compound then 24 hrs GGTI-298

SMILES	HSP70 level, ELISA signal (absence of compounds normalized as 1.00)
CCCCCCNC(=O)OC/C=C(\C)CC/C=C(\C)CCC=C(C)C [Compound 8i, Hexyl 2E, 6E-farnesyl carbamate]	0.97
CC(C)=CCC/C(C)=C/CC/C(C)=C/CC/C(C)=C/COC(=S)NC1CC2CCC1C2 (stereo not drawn) [Compound 10j, Exo-Norbornyl 2E,6E,10E-geranylgeranyl thiocarbamate]	1.08
CC(C)=CCC/C(C)=C/CC/C(C)=C/CC/C(C)=C/C1=N[C@@H](Cc2ccccc2)CO1 [Compound 27g, (S)-4-benzyl-2-((1E,5E,9E)-2,6,10,14-tetramethylpentadeca-1,5,9,13-tetraen-1-yl)-4,5-dihydrooxazole]	1.11
CC(C)=CCC/C(C)=C/CC/C(C)=C/CC/C(C)=C/COC(=S)NCCN1CCOCC1 [Compound 10m, Morpholinyl-2′-ethyl 2E,6E,10E-geranylgeranyl thiocarbamate]	1.06
CC(=O)NC(=S)OC/C=C(\C)CC/C=C(\C)CC/C=C(\C)CCC=C(C)C [Compound 10g, Acetyl 2E,6E,10E-geranylgeranyl thiocarbamate]	1.60
CCCCCN(C)C/C=C(\C)CC/C=C(\C)CC/C=C(\C)CCC=C(C)C [Compound 17b, N-Methyl-N-n-pentyl-2E,6E,10E-Geranylgeranyl amine]	1.08
CC(C)=CCC/C(C)=C/CC/C(C)=C/CC/C(C)=C/C1=N[C@H](C(C)C)CO1 [Compound 27e, (R)-4-isopropyl-2-((1E,5E,9E)-2,6,10,14-tetramethylpentadeca-1,5,9,13-tetraen-1-yl)-4,5-dihydrooxazole]	1.11
CC(C)=CCC/C(C)=C/CC/C(C)=C/CC/C(C)=C/CN(C)C1CCCCC1 [Compound 17a, N-Cyclohexyl N-Methyl-2E,6E,10E-Geranylgeranyl amine]	1.22
CC(C)=CCC/C(C)=C/c1nc(-c2cccnc2)no1 [Compound 35a, (E)-5-(2,6-dimethylhepta-1,5-dien-1-yl)-3-(pyridin-3-yl)-1,2,4-oxadiazole]	1.08
CCC(C)NC(=S)OC/C=C(\C)CC/C=C(\C)CCC=C(C)C (stereo not drawn) [Compound 9b, sec-Butyl 2E, 6E-farnesyl thiocarbamate]	0.99
CC(C)=CCC/C(C)=C/CC/C(C)=C/CC/C(C)=C/C1=N[C@H](C)CO1 [Compound 27d, (R)-4-methyl-2-((1E,5E,9E)-2,6,10,14-tetramethylpentadeca-1,5,9,13-tetraen-1-yl)-4,5-dihydrooxazole]	1.37
COc1ccc(C(=O)OC/C=C(\C)CC/C=C(\C)CC/C=C(\C)CCC=C(C)C)c(OC)c1 [Compound 2k, 2E, 6E, 10E-Geranylgeranyl-2′,4′-dimethoxybenzoate]	0.88
CCOC(=O)CNC(=O)OC/C=C(\C)CC/C=C(\C)CC/C=C(\C)CCC=C(C)C [Compound 7p, Ethoxycarbonyl methyl 2E, 6E, 10E-geranylgeranyl carbamate]	1.00
CC(C)=CCC/C(C)=C/CC/C(C)=C/COC(=O)NC12CC3CC(CC(C3)C1)C2 [Compound 8e, Adamantyl 2E, 6E-farnesyl carbamate]	1.09
CC(C)=CCC/C(C)=C/CC/C(C)=C/CC/C(C)=C/COC(=O)Nc1ccc(C)cc1 [Compound 7o, P-Tolyl 2E, 6E, 10E-geranylgeranyl carbamate]	1.15
CC(C)=CCC/C(C)=C/CC/C(C)=C/COS(=O)(=O)c1ccccc1 [Compound 6a, 2E, 6E-Farnesyl benzenesulfonate]	1.11
CC(C)=CCC/C(C)=C/CC/C(C)=C/CC/C(C)=C/c1nnc(-c2ccccc2)o1 [Compound 29a, 2-phenyl-5-((1E,5E,9E)-2,6,10,14-tetramethylpentadeca-1,5,9,13-tetraen-1-yl)-1,3,4-oxadiazole]	1.22
COc1ccc(-c2nnc(/C=C(\C)CC/C=C(\C)CC/C=C(\C)CCC=C(C)C)o2)cc1OC [Compound 29d, 2-(3,4-dimethoxyphenyl)-5-((1E,5E,9E)-2,6,10,14-tetramethylpentadeca-1,5,9,13-tetraen-1-yl)-1,3,4-oxadiazole]	1.12
